Experimental data reported in ChEMBL document CHEMBL5321221, “Structure-activity relationship study of RSL3-based GPX4 degraders and its potential noncovalent optimization” (Eur J Med Chem, 2023).
One block for each compound: values may come before it. The source made the active and inactive calls. The calls are words filed in the database; no cut-off is given here.

Experiments:
[1] = target: T1, Phospholipid hydroperoxide glutathione peroxidase GPX4 (Homo sapiens) (UniProt P36969); assay: Induction of GPX4 degradation in human HT-1080 cells at 0.1 uM incubated for 6 hrs relative to control; assay type: cell-based
T1 sequence (whole entry): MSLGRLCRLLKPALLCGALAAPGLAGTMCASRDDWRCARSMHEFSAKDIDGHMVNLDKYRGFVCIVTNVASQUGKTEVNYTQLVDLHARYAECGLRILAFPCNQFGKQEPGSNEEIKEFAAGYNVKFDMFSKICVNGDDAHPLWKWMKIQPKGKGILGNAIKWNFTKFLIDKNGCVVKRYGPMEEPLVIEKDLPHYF

[2] = target: T1, Phospholipid hydroperoxide glutathione peroxidase GPX4 (Homo sapiens); assay: Induction of GPX4 degradation in human HT-1080 cells at 10 uM incubated for 24 hrs relative to control; assay type: cell-based
[3] = target: T1, Phospholipid hydroperoxide glutathione peroxidase GPX4 (Homo sapiens); assay: Induction of GPX4 degradation in human HT-1080 cells at 10 uM incubated for 24 hrs by Western blotting analysis; assay type: cell-based
[4] = target: T1, Phospholipid hydroperoxide glutathione peroxidase GPX4 (Homo sapiens); assay: Induction of GPX4 degradation in human HT-1080 cells at 10 nM incubated for 24 hrs relative to control; assay type: cell-based
[5] = target: T1, Phospholipid hydroperoxide glutathione peroxidase GPX4 (Homo sapiens); assay: Induction of GPX4 degradation in human HT-1080 cells at 0.1 uM pretreated for 2 hrs followed by PYR41 addition and measured after 6 hrs; assay type: cell-based; conditions: time 8.0 hrs
[6] = target: T2, Phospholipid hydroperoxide glutathione peroxidase GPX4 (Homo sapiens, UniProt P36969); assay: Induction of GPX4 degradation in human NCI-H1650 cells incubated for 24 hrs; assay type: cell-based
T2 sequence (P36969 whole entry): T1 sequence (whole entry)

HT-1080 [7] = assay: Potency index, ratio of methyl (1S,3R)-1-(4-acetylphenyl)-2-(2-chloroacetyl)-2,3,4,9-tetrahydro-1H-pyrido[3,4-b]indole-3-carboxylate IC50 to test compound IC50 for antiproliferative activity against human HT-1080 cells; assay type: functional
[8] = target: T1, Phospholipid hydroperoxide glutathione peroxidase GPX4 (Homo sapiens); assay: Induction of GPX4 degradation in human HT-1080 cells at 0.0001 to 0.1 uM incubated for 24 hrs by Western blotting analysis; assay type: cell-based; conditions: dose 0.0001-0.1 µM
[9] = target: T2, Phospholipid hydroperoxide glutathione peroxidase GPX4; assay: (§1) Induction of GPX4 degradation in human HT-1080 cells incubated for 6 hrs by Western blotting analysis; assay type: cell-based
[10] = target: T1, Phospholipid hydroperoxide glutathione peroxidase GPX4 (Homo sapiens); assay: as §1; assay type: cell-based; conditions: dose 0.0001-0.1 µM
[11] = target: T1, Phospholipid hydroperoxide glutathione peroxidase GPX4 (Homo sapiens); assay: Induction of GPX4 degradation in human HT-1080 cells at 0.1 uM pretreated for 2 hrs followed by MG132 and measured after 6 hrs; assay type: cell-based; conditions: time 8.0 hrs
[12] = Antiproliferative activity against human HEK293T cells incubated for 24 hrs; assay type: toxicity, cell-based, HEK-293T
[13] = target: T1, Phospholipid hydroperoxide glutathione peroxidase GPX4 (Homo sapiens); assay: Induction of GPX4 degradation in human HT-1080 cells at 0.0001 to 0.1 uM incubated for 1 hr by Western blotting analysis; assay type: cell-based; conditions: dose 0.0001-0.1 µM
HT-1080 [14] = assay: Antiproliferative activity against human HT-1080 cells incubated for 24 hrs; assay type: functional, cell-based; conditions: HT-1080, 24 h
[15] = target: T1, Phospholipid hydroperoxide glutathione peroxidase GPX4 (Homo sapiens); assay: Induction of GPX4 degradation in human HT-1080 cells in presence of RSL3; assay type: cell-based
[16] = target: T2, Phospholipid hydroperoxide glutathione peroxidase GPX4; assay: Induction of GPX4 degradation in gefitinib resistant human NCI-H1650 cells incubated for 24 hrs; assay type: cell-based
HT-1080 [17] = assay: Potency index, ratio of (4-(bis(4-chlorophenyl)methyl)piperazin-1-yl)(5-methyl-4-nitroisoxazol-3-yl)methanone IC50 to test compound IC50 for antiproliferative activity against human HT-1080 cells; assay type: functional
HT-1080 [18] = assay: Antiproliferative activity against human HT-1080 cells at 1 uM incubated for 24 hrs in presence of liproxstatin-1; assay type: functional, cell-based
[19] = target: T1, Phospholipid hydroperoxide glutathione peroxidase GPX4 (Homo sapiens); assay: Induction of GPX4 degradation in human HT-1080 cells in presence of lenalidomide; assay type: cell-based
HT-1080 [20] = assay: Antiproliferative activity against human HT-1080 cells at 10 uM; assay type: functional, cell-based
[21] = target: T1, Phospholipid hydroperoxide glutathione peroxidase GPX4 (Homo sapiens); assay: Induction of GPX4 degradation in human HT-1080 cells at 0.1 to 1 uM incubated for 24 hrs; assay type: cell-based; conditions: dose 0.1-1 µM

Activity [1]: 44%
Structure (SMILES): COC(=O)[C@H]1Cc2c([nH]c3ccccc23)[C@H](c2ccc(C(=O)N3CCN(CCCCCCCCCCCCCCNc4cccc5c4C(=O)N(C4CCC(=O)NC4=O)C5=O)CC3)cc2)N1C(=O)CCl (stereo partly specified)

Activity [1]: 64%
Structure (SMILES): COC(=O)[C@H]1Cc2c([nH]c3ccccc23)[C@H](c2ccc(C(=O)N3CCN(CCCCCCCCCCCNc4cccc5c4CN(C4CCC(=O)NC4=O)C5=O)CC3)cc2)N1C(=O)CCl (stereo partly specified)

Activity [2]: 11%
Structure (SMILES): COC(=O)[C@H]1Cc2c([nH]c3ccccc23)[C@H](c2ccc(C(=O)NCc3cn(CCOCCOCCOCCOCCOCCN[C@H](C(=O)N4C[C@H](O)C[C@H]4C(=O)N[C@@H](C)c4ccc(-c5scnc5C)cc4)C(C)(C)C)nn3)cc2)N1C(=O)CCl

Activity [3]: inactive
Structure (SMILES): CCCCCC(=O)N1[C@@H](c2ccc(C(=O)OC)cc2)c2[nH]c3ccccc3c2C[C@@H]1C(=O)OC

Activity [2]: inactive
Structure (SMILES): COC(=O)[C@H]1Cc2c([nH]c3ccccc23)[C@H](c2ccc(C(=O)NCc3cn(CCOCCOCCOCCOCCOCCNc4cccc5c4CN(C4CCC(=O)NC4=O)C5=O)nn3)cc2)N1C(=O)CCl (stereo partly specified)

Activity [1]: 48%
Structure (SMILES): COC(=O)[C@H]1Cc2c([nH]c3ccccc23)[C@H](c2ccc(C(=O)N3CCN(CCCCCCCCCNc4cccc5c4CN(C4CCC(=O)NC4=O)C5=O)CC3)cc2)N1C(=O)CCl (stereo partly specified)

Activity [4]: 3%
Structure (SMILES): COC(=O)[C@H]1Cc2c([nH]c3ccccc23)[C@H](c2ccc(C(=O)N3CCC(CN4CCN(CCCNc5cccc6c5C(=O)N(C5CCC(=O)NC5=O)C6=O)CC4)CC3)cc2)N1C(=O)CCl (stereo partly specified)

Activity [1]: 10%
Structure (SMILES): COC(=O)[C@H]1Cc2c([nH]c3ccccc23)[C@H](c2ccc(C(=O)N3CCN(CCCCCCCNc4cccc5c4CN(C4CCC(=O)NC4=O)C5=O)CC3)cc2)N1C(=O)CCl (stereo partly specified)

Activity [1]: 56%
Structure (SMILES): COC(=O)[C@H]1Cc2c([nH]c3ccccc23)[C@H](c2ccc(C(=O)N3CCN(CCCCCCCCCCCCNc4cccc5c4C(=O)N(C4CCC(=O)NC4=O)C5=O)CC3)cc2)N1C(=O)CCl (stereo partly specified)

Activity [5]: inactive | DC50 [6]: 17.9 nM | Activity [8]: Active | DC50 [9]: 37.4 nM | Activity [10]: Dose-Dependent Effect | Activity [11]: inactive | Activity [1]: 69% | Activity [13]: Active | IC50 (HT-1080 [14]): 68 nM | Activity [4]: 57% | Activity [15]: Active | DC50 [16]: 22.9 nM | Activity [19]: Active
Structure (SMILES): COC(=O)[C@H]1Cc2c([nH]c3ccccc23)[C@H](c2ccc(C(=O)N3CCN(CCCCCCCCCCCCCNc4cccc5c4CN(C4CCC(=O)NC4=O)C5=O)CC3)cc2)N1C(=O)CCl (stereo partly specified)
Ratio IC50 (HT-1080 [7]): 2 | IC50 at 24 h [12]: 205 nM | Ratio IC50 (HT-1080 [17]): 6 | Activity (HT-1080 [18]): inactive

Activity [2]: 15%
Structure (SMILES): COC(=O)[C@H]1Cc2c([nH]c3ccccc23)[C@H](c2ccc(C(=O)NCc3cn(CCOCCOCCOCCOCCOCCNc4cccc5c4C(=O)N(C4CCC(=O)NC4=O)C5=O)nn3)cc2)N1C(=O)CCl (stereo partly specified)

Activity [2]: 32%
Structure (SMILES): COC(=O)[C@H]1Cc2c([nH]c3ccccc23)[C@H](c2ccc(C(=O)NCc3cn(CCOCCOCCNc4cccc5c4C(=O)N(C4CCC(=O)NC4=O)C5=O)nn3)cc2)N1C(=O)CCl (stereo partly specified)

Activity [3]: inactive
Structure (SMILES): CCCC(=O)N1[C@@H](c2ccc(C(=O)OC)cc2)c2[nH]c3ccccc3c2C[C@@H]1C(=O)OC

Activity [2]: inactive
Structure (SMILES): COC(=O)[C@H]1Cc2c([nH]c3ccccc23)[C@H](c2ccc(C(=O)NCc3cn(CCOCCOCCOCCOCCNc4cccc5c4CN(C4CCC(=O)NC4=O)C5=O)nn3)cc2)N1C(=O)CCl (stereo partly specified)

Activity [2]: 49%
Structure (SMILES): COC(=O)[C@H]1Cc2c([nH]c3ccccc23)[C@H](c2ccc(C(=O)NCc3cn(CCOCCOCCN[C@H](C(=O)N4C[C@H](O)C[C@H]4C(=O)N[C@@H](C)c4ccc(-c5scnc5C)cc4)C(C)(C)C)nn3)cc2)N1C(=O)CCl

Activity [4]: 34%
Structure (SMILES): COC(=O)[C@H]1Cc2c([nH]c3ccccc23)[C@H](c2ccc(C(=O)N3CCC(CN4CCN(CCCCCCCCNc5cccc6c5C(=O)N(C5CCC(=O)NC5=O)C6=O)CC4)CC3)cc2)N1C(=O)CCl (stereo partly specified)

Activity [1]: 68%
Structure (SMILES): COC(=O)[C@H]1Cc2c([nH]c3ccccc23)[C@H](c2ccc(C(=O)N3CCN(CCCCCCCCCCCCNc4cccc5c4CN(C4CCC(=O)NC4=O)C5=O)CC3)cc2)N1C(=O)CCl (stereo partly specified)

Activity [3]: inactive
Structure (SMILES): COC(=O)c1ccc([C@@H]2N[C@@H](C(=O)OC)Cc3c2[nH]c2ccccc32)cc1

Activity [1]: 58%
Structure (SMILES): COC(=O)[C@H]1Cc2c([nH]c3ccccc23)[C@H](c2ccc(C(=O)N3CCN(CCCCCCCCCCCCCCNc4cccc5c4CN(C4CCC(=O)NC4=O)C5=O)CC3)cc2)N1C(=O)CCl (stereo partly specified)

Activity [4]: 5%
Structure (SMILES): COC(=O)[C@H]1Cc2c([nH]c3ccccc23)[C@H](c2ccc(C(=O)N3CCC(CN4CCN(CCCCCNc5cccc6c5C(=O)N(C5CCC(=O)NC5=O)C6=O)CC4)CC3)cc2)N1C(=O)CCl (stereo partly specified)

Activity [2]: inactive
Structure (SMILES): COC(=O)[C@H]1Cc2c([nH]c3ccccc23)[C@H](c2ccc(C(=O)NCc3cn(CCOCCOCCNc4cccc5c4CN(C4CCC(=O)NC4=O)C5=O)nn3)cc2)N1C(=O)CCl (stereo partly specified)

Activity [4]: 15%
Structure (SMILES): COC(=O)[C@H]1Cc2c([nH]c3ccccc23)[C@H](c2ccc(C(=O)N3CCC(N4CCN(CCCCCCCCCNc5cccc6c5CN(C5CCC(=O)NC5=O)C6=O)CC4)CC3)cc2)N1C(=O)CCl (stereo partly specified)

Activity [2]: 22%
Structure (SMILES): COC(=O)[C@H]1Cc2c([nH]c3ccccc23)[C@H](c2ccc(C(=O)NCc3cn(CCOCCOCCOCCNc4cccc5c4C(=O)N(C4CCC(=O)NC4=O)C5=O)nn3)cc2)N1C(=O)CCl (stereo partly specified)

Activity [21]: inactive | Activity [2]: 50%
Structure (SMILES): COC(=O)[C@H]1Cc2c([nH]c3ccccc23)[C@H](c2ccc(C(=O)NCc3cn(CCOCCOCCOCCN[C@H](C(=O)N4C[C@H](O)C[C@H]4C(=O)N[C@@H](C)c4ccc(-c5scnc5C)cc4)C(C)(C)C)nn3)cc2)N1C(=O)CCl
Activity (HT-1080 [20]): Active

IC50 (HT-1080 [14]): 410 nM
Structure (SMILES): Cc1onc(C(=O)N2CCN(C(c3ccc(Cl)cc3)c3ccc(Cl)cc3)CC2)c1[N+](=O)[O-]
IC50 at 24 h [12]: 430 nM

Activity [2]: 12%
Structure (SMILES): COC(=O)[C@H]1Cc2c([nH]c3ccccc23)[C@H](c2ccc(C(=O)NCc3cn(CCOCCOCCOCCOCCN[C@H](C(=O)N4C[C@H](O)C[C@H]4C(=O)N[C@@H](C)c4ccc(-c5scnc5C)cc4)C(C)(C)C)nn3)cc2)N1C(=O)CCl

Activity [3]: inactive
Structure (SMILES): CCC(=O)N1[C@@H](c2ccc(C(=O)OC)cc2)c2[nH]c3ccccc3c2C[C@@H]1C(=O)OC

Activity [1]: 67%
Structure (SMILES): COC(=O)[C@H]1Cc2c([nH]c3ccccc23)[C@H](c2ccc(C(=O)N3CCN(CCCCCCCCCCCCCNc4cccc5c4C(=O)N(C4CCC(=O)NC4=O)C5=O)CC3)cc2)N1C(=O)CCl (stereo partly specified)

Activity [2]: 35%
Structure (SMILES): COC(=O)[C@H]1Cc2c([nH]c3ccccc23)[C@H](c2ccc(C(=O)NCc3cn(CCOCCOCCOCCOCCNc4cccc5c4C(=O)N(C4CCC(=O)NC4=O)C5=O)nn3)cc2)N1C(=O)CCl (stereo partly specified)

Activity [1]: 46%
Structure (SMILES): COC(=O)[C@H]1Cc2c([nH]c3ccccc23)[C@H](c2ccc(C(=O)N3CCN(CCCCCCCCCCCNc4cccc5c4C(=O)N(C4CCC(=O)NC4=O)C5=O)CC3)cc2)N1C(=O)CCl (stereo partly specified)

Activity [2]: inactive
Structure (SMILES): COC(=O)[C@H]1Cc2c([nH]c3ccccc23)[C@H](c2ccc(C(=O)NCc3cn(CCOCCOCCOCCNc4cccc5c4CN(C4CCC(=O)NC4=O)C5=O)nn3)cc2)N1C(=O)CCl (stereo partly specified)

Activity [3]: inactive
Structure (SMILES): CCC(=O)N1[C@@H](c2ccc(C(=O)N3CCN(CCCCCCCCCCCCCNc4cccc5c4CN(C4CCC(=O)NC4=O)C5=O)CC3)cc2)c2[nH]c3ccccc3c2C[C@@H]1C(=O)OC (stereo partly specified)
